The values below are quoted from earlier work in patent US11911505B2, “Liquid formulations of hypoglycaemic sulfonamides” (AMMTEK, priority 2012, dated 2024).

Each structure is given as a SMILES string. In brackets after ≈: the same amount, converted by molar mass.

The conditions of the data set: 27° C.
As to `CC(=O)c1ccc(S(=O)(=O)NC(=O)NC2CCCCC2)cc1` [acetohexamide], the solubility in water is 48 µg/mL (≈ 148 µM).

Turning to `CCC1=C(C)CN(C(=O)NCCc2ccc(S(=O)(=O)NC(=O)N[C@H]3CC[C@H](C)CC3)cc2)C1=O` [glimepiride], the solubility in water is 38 µg/mL (≈ 77.5 µM).

For the compound `COc1ccc2c(c1)C(=O)N(CCc1ccc(S(=O)(=O)NC(=O)NC3CCCCC3)cc1)C(=O)C2(C)C` [gliquidone], the solubility in water was 2 µg/mL (≈ 3.79 µM).
